Read-outs that look alike come from different tables or passages of the source.
Legend:
HIV protease = target: T1, HIV protease (Human immunodeficiency virus type 1 group M subtype B, UniProt P04585); experiment: biochemical; conditions: read-out: IC50 (concentration causing 50% inhibition of HIV protease)
T1 construct: an HIV-encoded enzyme known as HIV protease
From the text: The procedure is based on the capacity of the test compound to inhibit enzymatic cleavage by HIV protease of a decapeptide (the substrate) having an amino acid sequence which includes a known HIV protease cleavage site of a HIV polyprotein; see H. G. Krausslich et al., Proc. Natl. Acad. Sci. USA, 86, 807 (1989).
Anderson, S. Rakhit and C. Yoakim in the European patent application 443 560, published Aug. 28, 1991.

[1] = system: HIV (H9/HTLV-IIIB stock) in C8166 cells; experiment: Cell culture assay: inhibition of syncytia formation in HIV-infected C8166 cells (antiviral, anti-HIV effect); format: cell-based, HIV (HTLV-IIIB); human T4 cell line; conditions: read-out: EC50 (concentration causing 50% inhibition of syncytia formation)
From the text: Typical of such procedures are those described by S. Harada and N. Yamamoto, Jpn. J. Cancer Res. (Gann), 76, 432 (1985), and S. Harada et al., Science, 229, 563 (1985). An assay based on the latter procedures is described in the examples hereinafter.
In addition, Tables 1 to 8 list the results for exemplified compounds of formula 1 when assayed for antiviral (anti-HIV) effects according to the following protocol which is based on a cell culture assay previously described by Harada et al., supra. Transformed cells are used because of the rapidity with which HIV will replicate in the cells.
1. The test compound is dissolved in dimethylsulfoxide to a concentration of 5 mg/mL. The resultant solution .can be stored at 4° until use.
2. The resultant solution is diluted in RPMI 1640 (Gibco Laboratories, St. Lawrence, Mass., USA) to four times (4×) the final concentration which is to be tested. Once diluted in RPMI 1640, the solution is used in the cell culture assay within 4 h.
3. The latter solution (50 μL) is added to triplicate wells of a 96 well flat bottomed microtiter plate. RPMI (50 μL) also is added to control wells.
4. C8166 cells (5×10^4) in 50 μL of HEPES-buffered RPMI 1640 (pH=7.2), 10% heat inactivated fetal calf serum (FCS), […] gentamicin (complete media) are added to all wells.
5. Fifty times TCID50 of H9/HTLV-IIIB stock (stored in liquid nitrogen as cell culture supernatant in 50% FCS) in 100 μL of complete media is added to all wells. The infectious titer of the virus stocks is as previously determined by end point dilution on C8166 cells. The titer of stocks are stable for 6-12 months when stored at -193°.
6. Microtiter plates are then placed on level shelves of a 37°, 5% CO2 humidified incubator for 72 h.
7. Plates are then removed and centers of syncytia are counted in each well by low power phase contrast light microscopy. […] Control wells should have between 25 and 75 centers of syncytia per well.
8. Percent inhibition of syncytia formation is calculated by the formula: [formula]
The concentration of the test compound which causes a 50% inhibition of syncytia formation, i.e. the EC50, is determined by using the technique of serial dilution of the working solution at step 3 and graphically plotting the observed percent inhibition of syncytia formation against the various concentrations of the test compound.
In the following tables, assay results are listed for the exemplified compounds from the aforementioned recombinant HIV protease HPLC assay under the heading IC50 (nM) and from the cell culture assay under the heading EC50 (nM). Note that for some of the compounds listed in tables, the EC50 's have not been determined (ND).

[2] = recombinant HIV protease, decapeptide substrate, HPLC assay
[3] = Human immunodeficiency virus 1, C8166 cells, H9/HTLV-IIIB, 50 times TCID50, 72 h, 37°

Row | SMILES | IC50 (HIV protease; [2]) [nM] | EC50 [1, 3] [nM] | IC50 (HIV protease) [nM] | EC50 ([1]; Human immunodeficiency virus 1, IIIB, C8166, 72 h) [nM]
1 | CCC(CC)NC(=O)C[C@@H](C(=O)NC[C@@H](O)[C@H](Cc1ccccc1)NC(=O)[C@H](CC(N)=O)NC(=O)CCCc1ccccc1)C(C)(C)C [Entry 21] | 5 | 1100 |  | 
2 | CCC(CC)NC(=O)C[C@@H](C(=O)NC[C@@H](O)[C@H](Cc1ccccc1)NC(=O)[C@@H](NC(=O)c1ccc2ccccc2n1)[C@@H](C)O)C(C)(C)C [Entry 23, N^1-(1-Ethylpropyl)-N^4 -{3(S)-{[N-(2-quinolylcarbonyl)threonyl]amino}-2(R)-hydroxy-4-phenylbutyl}-3(R)-tert-butylbutanediamide] | 4 | 52 |  | 
3 | CCC(CC)NC(=O)C[C@@H](C(=O)NC[C@@H](O)[C@H](Cc1ccccc1)NC(=O)[C@H](CC(N)=O)NC(=O)c1cc(OC)c2ccccc2n1)C(C)(C)C [Entry 25] | 4 | 164 |  | 
4 | CCC(CC)NC(=O)C[C@@H](C(=O)NC[C@@H](O)[C@H](Cc1ccccc1)NC(=O)[C@@H](NC(=O)c1cnc2ccccc2n1)[C@@H](C)O)C(C)(C)C [Entry 26] |  | 65 | 4 | 
5 | CCC(CC)NC(=O)C[C@@H](C(=O)NC[C@@H](O)[C@H](Cc1ccccc1)NC(=O)[C@@H](NC(=O)c1ccc2ccccc2n1)C(C)(C)C)C(C)(C)C [Entry 27] | 4 | 83 |  | 
6 | CCC(CC)NC(=O)C[C@@H](C(=O)NC[C@@H](O)[C@H](Cc1ccccc1)NC(=O)[C@@H](NC(C)=O)C(C)C)C(C)(C)C [Entry 28] | 4 | 530 |  | 
7 | CCC(CC)NC(=O)C[C@@H](C(=O)NC[C@@H](O)[C@H](Cc1ccccc1)NC(=O)[C@@H](NC(=O)c1ccc2ccccc2n1)C(C)C)C(C)(C)C [Entry 29] |  | 52 | 3 | 
8 | CCC(CC)NC(=O)C[C@@H](C(=O)NC[C@@H](O)[C@H](Cc1ccccc1)NC(=O)[C@@H](NC(=O)c1cnc2ccccc2n1)C(C)C)C(C)(C)C [Entry 31] |  | 25 | 3 | 
9 | CCC(CC)NC(=O)C[C@@H](C(=O)NC[C@@H](O)[C@H](Cc1ccccc1)NC(=O)[C@@H](NC(=O)OCc1ccccc1)C(C)C)C(C)(C)C [Entry 32] | 3 | 63 |  | 
10 | CCC(CC)NC(=O)C[C@@H](C(=O)NC[C@@H](O)[C@H](Cc1ccccc1)NC(=O)[C@@H](NC(=O)OCc1ccccc1)C(C)(C)C)C(C)(C)C [Entry 34] | 3 | 65 |  | 
11 | CCC(CC)NC(=O)C[C@@H](C(=O)NC[C@@H](O)[C@H](Cc1ccccc1)NC(=O)[C@H](CC(N)=O)NC(=O)c1ccc2ccccc2n1)C(C)(C)C [Entry 35] | 3 | 130 |  | 
12 | CCC(CC)NC(=O)C[C@@H](C(=O)NC[C@@H](O)[C@H](Cc1ccccc1)NC(=O)[C@H](CC(N)=O)NC(=O)c1cnc2ccccc2n1)C(C)(C)C [Entry 36] | 3 | 260 |  | 
13 | CCC(CC)NC(=O)C[C@@H](C(=O)NC[C@@H](O)[C@H](Cc1ccccc1)NC(=O)[C@H](CC#N)NC(=O)c1ccc2ccccc2n1)C(C)(C)C [Entry 37] | 3 | 34 |  | 
14 | CCC(CC)NC(=O)C[C@@H](C(=O)NC[C@@H](O)[C@H](Cc1ccccc1)NC(=O)[C@H](CC(N)=O)NC(=O)OCCc1ccccc1)C(C)(C)C [Entry 40] | 4 | 570 |  | 
15 | CCC(CC)NC(=O)C[C@@H](C(=O)NC[C@@H](O)[C@H](Cc1ccccc1)NC(=O)[C@@H](NC(=O)COc1ccccc1)[C@@H](C)O)C(C)(C)C [Entry 41] | 3 | 170 |  | 
16 | CC(C)c1cccc(C(C)C)c1NC(=O)C[C@@H](C(=O)NC[C@@H](O)[C@H](Cc1ccccc1)NC(=O)[C@@H](NC(=O)c1ccc2ccccc2n1)[C@@H](C)O)C(C)(C)C [Entry 42] | 19 | 830 |  | 
17 | CCc1cccc(CC)c1NC(=O)C[C@@H](C(=O)NC[C@@H](O)[C@H](Cc1ccccc1)NC(=O)[C@@H](NC(=O)c1ccc2ccccc2n1)[C@@H](C)O)C(C)(C)C [Entry 43] | 5 | 30 |  | 

Row | SMILES | IC50 (HIV protease; [2]) [nM] | EC50 [1, 3] [nM] | IC50 (HIV protease) [nM] | EC50 ([1]; Human immunodeficiency virus 1, IIIB, C8166, 72 h) [nM]
18 | CCCC(CCC)NC(=O)C[C@@H](C(=O)NC[C@@H](O)[C@H](Cc1ccccc1)NC(=O)[C@H](CC(N)=O)NC(=O)c1ccc2ccccc2n1)C(C)(C)C [Entry 44] | 4 | 57 |  | 
19 | CC(C)C(NC(=O)C[C@@H](C(=O)NC[C@@H](O)[C@H](Cc1ccccc1)NC(=O)[C@H](CC(N)=O)NC(=O)c1ccc2ccccc2n1)C(C)(C)C)C(C)C [Entry 45] | 4 | 150 |  | 
20 | Cc1cccc(C)c1NC(=O)C[C@@H](C(=O)NC[C@@H](O)[C@H](Cc1ccccc1)NC(=O)[C@@H](NC(=O)c1ccc2ccccc2n1)[C@@H](C)O)C(C)(C)C [Entry 46] | 2 | 30 |  | 
21 | CCC(CC)NC(=O)CC(C(=O)NC[C@@H](O)[C@H](Cc1ccccc1)NC(=O)[C@H](CC(N)=O)NC(=O)OCc1ccccc1)C(C)(C)C (stereo partly drawn) [Entry 49] | 13 |  |  | 1300
22 | CC(C)[C@H](NC(=O)OCc1ccccc1)C(=O)N[C@@H](Cc1ccccc1)[C@H](O)CNC(=O)C(CC(=O)NC(C)(C)C)C(C)(C)C (stereo partly drawn) [Entry 51] |  | 200 | 7 | 
23 | CCC(CC)NC(=O)CC(C(=O)NC[C@@H](O)[C@H](Cc1ccccc1)NC(=O)[C@H](CC(N)=O)NC(=O)c1ccc2ccccc2n1)C(C)(C)C (stereo partly drawn) [Entry 52] | 6 | 130 |  | 
24 | CCC(CC)NC(=O)CC(C(=O)NC[C@@H](O)[C@H](Cc1ccccc1)NC(=O)[C@@H](NC(=O)OCc1ccccc1)C(C)(C)C)C(C)(C)C (stereo partly drawn) [Entry 53] | 6 | 90 |  | 
25 | CCC(CC)OC(=O)C[C@@H](C(=O)NC[C@@H](O)[C@H](Cc1ccccc1)NC(=O)[C@H](CC(N)=O)NC(=O)c1ccc2ccccc2n1)C(C)(C)C [Entry 59, 3(R)-tert-butyl-4-{2(R)-hydroxy-4-phenyl-3(S)-{[N-(2-quinolylcarbonyl)asparaginyl]-amino}butylamino}-4-oxobutyric acid 1-ethylpropyl ester] | 7 | 570 |  | 
26 | CCC(CC)NC(=O)C[C@@H](C(=O)NC[C@@H](O)[C@H](Cc1ccc(O)cc1)NC(=O)COc1c(C)cccc1C)C(C)(C)C [Entry 63, N^1-(1-ethylpropyl)-N^4 -{3(S)-{{(2,6-dimethylphenoxy)-acetyl}amino}-2(R)-hydroxy-4-(4-hydroxyphenyl)butyl}-3(R)-tert-butylbutanediamide] | 3.1 | 110 |  | 
27 | CCC(CC)NC(=O)C[C@@H](C(=O)NC[C@@H](O)[C@H](Cc1ccccc1)NC(=O)c1cc2ccccc2n1C)C(C)(C)C [Entry 64] | 8.9 | 640 |  | 
28 | CCC(CC)NC(=O)C[C@@H](C(=O)NC[C@@H](O)[C@H](Cc1ccccc1)NC(=O)c1ccc(Cl)cc1)C(C)(C)C [Entry 65] | 8.7 | 845 |  | 
29 | CCC(CC)NC(=O)C[C@@H](C(=O)NC[C@@H](O)[C@H](Cc1ccccc1)NC(=O)c1ccc(Cl)cc1Cl)C(C)(C)C [Entry 66] | 4.7 | 680 |  | 
30 | CCC(CC)NC(=O)C[C@@H](C(=O)NC[C@@H](O)[C@H](Cc1ccccc1)NC(=O)c1c(Cl)ccc(Cl)c1Cl)C(C)(C)C [Entry 67] | 6 | 360 |  | 
31 | CCC(CC)NC(=O)C[C@@H](C(=O)NC[C@@H](O)[C@H](Cc1ccccc1)NC(=O)c1ccccc1C)C(C)(C)C [Entry 68] | 6.4 | 375 |  | 
32 | CCC(CC)NC(=O)C[C@@H](C(=O)NC[C@@H](O)[C@H](Cc1ccccc1)NC(=O)c1cccc(N)c1C)C(C)(C)C [Entry 69] | 5.3 | 258 |  | 
33 | CCC(CC)NC(=O)C[C@@H](C(=O)NC[C@@H](O)[C@H](Cc1ccccc1)NC(=O)COc1c(C)cc(C)cc1C)C(C)(C)C [Entry 70] | 4.6 | 1200 |  | 

Source: patent publication US5545640A, “Protease inhibiting succinic acid derivatives” (Bio-Mega/Boehringer Ingeleheim Research Inc., priority 1995, dated 1996)
